Test results: PubChem BioAssay (NCI)
≈ marks a conversion by molar mass, not a printed value. Where “and” joins values, the source holds several entries; their conditions need not be identical. Equal values may be shown once.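 Following 48 hours of exposure in 96-well plates, responses at five concentrations were used to interpolate endpoints linearly. Here, GI50 denotes the concentration required for 50% inhibition of growth. TGI: total growth inhibition.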 Calls of active or inactive are those of the source. No stated cut-off is given here; in the data, active means GI50 below about 0.43 µM; inactive means the rest.

How the values were obtained:
Assay in all cases: NCI anticancer screen, dose series, 48 h
[1] = test system: SNB-78 CNS
[2] = test system: DLD-1 colon
[3] = test system: XF 498 CNS
[4] = test system: KM20L2 colon
[5] = test system: M19-MEL melanoma
[6] = test system: PC-3 prostate
[7] = test system: T-47D breast
[8] = test system: MDA-N
[9] = test system: DMS 273 small cell lung

Row | SMILES | TGI [1] [µM] | TGI [4] [µM] | TGI [5] | TGI [6] | TGI [7] | TGI [8] | GI50 [6] | GI50 [7] | also measured
1 | CCC[CH2][Sn]([CH2]CCC)([O]C(=O)C(N)CSC)[O]C(=O)C(N)CSC (configuration not stated) | 9.64 | 53.4 | 19.5 µM | – | – | – | – | – | GI50 [1]: 3.17 µM; GI50 [2]: 6.44 µM; TGI [2]: 18.3 µM; GI50 [3]: 5.54 µM; TGI [3]: 19 µM; GI50 [4]: 18.6 µM; GI50 [5]: 6.65 µM
2 | O=C1NC(=S)NC(=O)C1=Cc1cccc2cc3ccccc3cc12 | – | – | – | 3.3 µM | 3.86 µM | 4.69 µM | – | – | –
3 | O=CN1N=C(c2ccc(Cl)cc2)CC1c1cccc(Nc2ccnc3cc(Cl)ccc23)c1 (configuration not stated) | – | – | – | > 100 µM | 17.7 µM | – | 1.69 µM | 0.817 µM | –
4 | C=C(C)CN(CC#N)CC(=C)C | – | – | – | > 100 µM | > 100 µM | > 100 µM | – | – | –
5 | C=C1C(=O)[C@@]23CC1C(O)[C@@H](OC(C)=O)[C@@H]2C1(C)C(OC(C)=O)C[C@@H](OC(C)=O)C(C)(C)[C@@H]1C[C@H]3OC(C)=O (some centres not stated) | – | – | 4.85 µg/mL | > 10 µM and 22.4 µg/mL | 4.55 µM and 4.57 µg/mL | > 10 µM and 5.3 µg/mL | 10.6 µg/mL | 2.14 µg/mL | GI50 [8]: 2.28 µg/mL (≈ 4.27 µM); outcome [4]: inactive; GI50 [5]: 2.23 µg/mL
6 | Cc1cc(I)cc(CN(C)CCN2CCCC2)c1O | – | – | – | > 100 µM | 76 µM | – | 28.2 µM | 21.5 µM | –
7 | O=C(Nc1ccc(F)cc1F)c1cc(Br)ccc1O | – | – | – | 8.35 µM | 7.19 µM | – | 2.45 µM | 1.81 µM | –
8 | CCCCc1ccc(-n2c3nc(=O)n(C)c(=O)c-3nc3ccccc32)cc1 | 39 | 14.4 | 2.87 µM | – | – | – | – | – | TGI [9]: 26.4 µM; TGI [3]: 32.4 µM
9 | C1CCN(C2OC3C(COC3N3CCCCC3)OC2OC2CCO[C@@H]2N2CCCCC2)CC1 (some centres not stated) | 56.1 | > 100 | – | – | – | – | – | – | TGI [9]: > 100 µM; TGI [2]: > 100 µM; TGI [3]: 37.3 µM
10 | Cc1occc1C(=S)Nc1ccc(Cl)c(/C=N/OC(C)C)c1 | – | – | – | 47.3 µM | > 41.6 µM | 45 µM | – | – | –
11 | Cc1cc(C)nc(NS(=O)(=O)c2ccc(Nc3c4ccc(Cl)cc4nc4c(C(=O)Nc5ccc(S(=O)(=O)N=C(N)N)cc5)cccc34)cc2)n1 | > 100 | > 100 | > 100 µM | – | – | – | – | – | TGI [2]: > 100 µM; TGI [3]: > 100 µM
12 | COc1ccc2c(c1)CCc1[nH]c3ccccc3c1CCCC2 | – | – | – | > 10 µM | > 10 µM | > 10 µM | – | – | –
13 | O=C(CC12CC3CC(CC(C3)C1)C2)NCCOCCOCCOCCNC(=O)c1cc2c(o1)C(=O)c1ccccc1C2=O | – | – | – | 16.1 µM | 5.86 µM | – | 1.79 µM | 1.74 µM | –
14 | Nc1ncn(C2C=C(CO)C(O)C2O)c(=O)n1 (configuration not stated) | > 100 | > 100 | > 100 µM | – | – | – | – | – | TGI [9]: > 100 µM; TGI [2]: > 100 µM
